Experimental data as given in PMC10518257 (Nature Cancer, 2023).
Where “and” joins values, the source holds several entries; their conditions need not be identical. Equal values may be shown once.

Key:
[1] = test system: NIH-3T3-CCDC6::RET xenografts; experiment: Subcutaneous xenograft efficacy study
[2] = test system: ECLC5 xenografts; experiment: Subcutaneous xenograft efficacy study; settings: for Change in Tumor Volume: end of study, individual tumors
[3] = 50 mg/kg BID, day 0, individual animals
[4] = 50 mg/kg QD, day 0, individual animals
[5] = 100 mg/kg QD, day 0, individual animals

COCc1ccc(NC(=O)c2c(C#CCN3CCOCC3)n(C3(C)CC3)c3ncnc(N)c23)cc1 [Vepafestinib, 4-amino-N-[4-(methoxymethyl)phenyl]-7-(1-methylcyclopropyl)-6-[3-(morpholin-4-yl)prop-1-yn-1-yl]-7H-pyrrolo[2,3-d]pyrimidine-5-carboxamide]
Tumor volume ([1]; 25 mg/kg BID, day 2, individual animals): 193.69 mm3 and 110.58 mm3 and 112.28 mm3 and 116.25 mm3 (2×) | Tumor volume ([1]; 25 mg/kg BID, day 5, individual animals): 537.65 mm3 and 353.84 mm3 and 294.89 mm3 and 435.05 mm3 and 334.49 mm3 | Tumor volume ([1]; 25 mg/kg BID, day 8, individual animals): 612.84 mm3 and 590.68 mm3 and 301.59 mm3 and 585.96 mm3 and 389.56 mm3 | Tumor volume ([1]; 25 mg/kg QD, day 0, individual animals): 85.5 mm3 (2×) and 93.59 mm3 and 90.28 mm3 (2×) | Tumor volume ([1]; 25 mg/kg QD, day 5, individual animals): 285.69 mm3 and 281.26 mm3 and 438.74 mm3 and 367.92 mm3 and 382.08 mm3 | Tumor volume ([1]; 25 mg/kg QD, day 8, individual animals): 705.04 mm3 and 750.45 mm3 and 1169.92 mm3 and 945.8 mm3 and 1108.35 mm3 | Area Under Curve of tumor growth, Mean ([1]; 50 mg/kg BID): 678.7 | Tumor volume [1, 3]: 90.28 mm3 | Tumor volume ([1]; 50 mg/kg BID, day 5, individual animals): 225.29 mm3 and 277.15 mm3 and 217.15 mm3 and 205.88 mm3 and 223.64 mm3 | Tumor volume ([1]; 50 mg/kg BID, day 8, individual animals): 231.59 mm3 and 332.9 mm3 and 291.54 mm3 and 235.62 mm3 (2×) | Tumor volume [1, 4]: 93.59 mm3 and 83.97 mm3 (2×) and 85.5 mm3 and 90.28 mm3 | Tumor volume ([1]; 50 mg/kg QD, day 5, individual animals): 270.08 mm3 and 180.15 mm3 and 189.86 mm3 and 245.54 mm3 and 226.78 mm3 | Tumor volume ([1]; 50 mg/kg QD, day 8, individual animals): 466.45 mm3 and 389.65 mm3 and 491.45 mm3 and 378.3 mm3 and 446.6 mm3 | Area Under Curve of tumor growth, Mean ([1]; 100 mg/kg QD): 371 | Tumor volume [1, 5]: 83.97 mm3 (4×) and 85.5 mm3 | Tumor volume ([1]; 100 mg/kg QD, day 5, individual animals): 153.78 mm3 and 149.63 mm3 and 176.28 mm3 and 145.47 mm3 and 154.42 mm3 | Tumor volume ([1]; 100 mg/kg QD, day 8, individual animals): 153.78 mm3 and 197.55 mm3 and 200.12 mm3 (2×) and 192.42 mm3 | Area Under Curve of tumor growth, Mean ([2]; 25 mg/kg BID): -1045 | Tumor volume ([2]; 25 mg/kg BID, day 0, individual animals): 91.87 mm3 (2×) and 88.56 mm3 (2×) and 85.31 mm3 | Tumor volume ([2]; 25 mg/kg BID, day 4, individual animals): 74.9 mm3 (2×) and 77.87 mm3 and 71.99 mm3 and 69.38 mm3 | Tumor volume ([2]; 25 mg/kg BID, day 7, individual animals): 60.32 mm3 (2×) and 59.11 mm3 and 58.99 mm3 (2×) | Tumor volume ([2]; 25 mg/kg BID, day 11, individual animals): 60.32 mm3 and 48.77 mm3 and 55.52 mm3 and 54.07 mm3 (2×) | Tumor volume ([2]; 25 mg/kg BID, day 14, individual animals): 60.32 mm3 and 48.77 mm3 and 55.52 mm3 and 54.07 mm3 (2×) | Change in Tumor Volume ([2]; 25 mg/kg BID): -43.3221% and -50.8017% and -52.5743% and -65.5492% and -27.8004% | tumor regression ([2]; 50 mg per kg BID): 100% ± 0% | Area Under Curve of tumor growth, Mean ([2]; 50 mg/kg BID): -1486 | Tumor volume [2, 3]: 83.83 mm3 and 88.56 mm3 (2×) and 87.03 mm3 and 85.31 mm3 | Tumor volume ([2]; 50 mg/kg BID, day 4, individual animals): 68.07 mm3 and 72.18 mm3 (2×) and 66.63 mm3 (2×) | Tumor volume ([2]; 50 mg/kg BID, day 7, individual animals): 39.61 mm3 and 59.11 mm3 and 58.99 mm3 and 61.52 mm3 and 53.18 mm3 | Tumor volume ([2]; 50 mg/kg BID, day 11, individual animals): 36.97 mm3 and 42.6 mm3 and 49.37 mm3 and 48.41 mm3 and 48.77 mm3 | Tumor volume ([2]; 50 mg/kg BID, day 14, individual animals): 36.97 mm3 and 42.6 mm3 and 41.37 mm3 and 45.5 mm3 and 44.53 mm3 | Change in Tumor Volume ([2]; 50 mg/kg BID): -100% | Area Under Curve of tumor growth, Mean ([2]; 50 mg/kg QD): -1322 | Tumor volume [2, 4]: 85.31 mm3 and 83.83 mm3 and 88.56 mm3 and 91.87 mm3 and 90.28 mm3 | Tumor volume ([2]; 50 mg/kg QD, day 4, individual animals): 72.18 mm3 (2×) and 75.04 mm3 and 68.07 mm3 and 69.38 mm3 | Tumor volume ([2]; 50 mg/kg QD, day 7, individual animals): 50.89 mm3 and 53.18 mm3 and 49.83 mm3 (2×) and 48.77 mm3 | Tumor volume ([2]; 50 mg/kg QD, day 11, individual animals): 52.07 mm3 (2×) and 57.91 mm3 and 49.83 mm3 and 48.77 mm3 | Tumor volume ([2]; 50 mg/kg QD, day 14, individual animals): 52.07 mm3 (2×) and 57.91 mm3 and 48.77 mm3 and 62.73 mm3 | Change in Tumor Volume ([2]; 50 mg/kg QD): -57.7775% and -61.9945% and -68.4282% and -71.9277% and -43.6309% | tumor regression ([2]; 100 mg per kg QD): 90.3% ± 4% | Area Under Curve of tumor growth, Mean ([2]; 100 mg/kg QD): -1970 | Tumor volume [2, 5]: 91.87 mm3 (2×) and 88.56 mm3 and 85.31 mm3 (2×) | Tumor volume ([2]; 100 mg/kg QD, day 4, individual animals): 47.71 mm3 and 52.07 mm3 (2×) and 49.83 mm3 and 50.97 mm3 | Tumor volume ([2]; 100 mg/kg QD, day 7, individual animals): 38.79 mm3 and 35.19 mm3 and 30.11 mm3 (2×) and 25.42 mm3 | Tumor volume ([2]; 100 mg/kg QD, day 11, individual animals): 38.79 mm3 and 35.19 mm3 and 26.94 mm3 (2×) and 30.11 mm3 | Tumor volume ([2]; 100 mg/kg QD, day 14, individual animals): 34.35 mm3 and 35.19 mm3 and 26.94 mm3 and 28.5 mm3 and 30.11 mm3 | Change in Tumor Volume ([2]; 100 mg/kg QD): -85.621% and -100% and -81.7724% and -84.0971%
